From patent publication USRE37078E, “Thiophene compounds” (Adir et Compagnie, priority 1995, dated 2001) come the findings set out here.

The test system of assay [1] is lipoxygenase pathway (LTB4). Description: biosynthesis of mediators of the lipoxygenase pathway in vitro on rat polymorphonucleocytes stimulated by ionophore A23187. It is filed as cell-based. From the text:
(§1) Tordjman et al. ("High-performance liquid chromatographic quantitation of cyclooxygenase and lipoxygenase metabolites of arachidonic acid from rat polymorphonuclear leucocytes" Journal of Chromatography, 532, 1990, 135-143).

In a further assay the test system is mouse. Kind of assay: acute inflammatory pain test in the mouse (Siegmund test, writhing). The note with it: oral administration, read-out: dose causing 50% inhibition of the reactions of the animal. It is filed as in vivo. From the text:
Exp. Ther. 119, 1957, 184).

Assay [2] relates to cyclooxygenase pathway (PGE2). Kind of assay: biosynthesis of mediators of the cyclooxygenase pathway in vitro on rat polymorphonucleocytes stimulated by ionophore A23187. It is filed as cell-based.
Description: as §1

For the next assay, the system named is rat. Kind of assay: polyarthritis auto-immune model in the rat using Freund's adjuvant. It is filed as in vivo. The note with it: oral, 5 mg/kg/day, 14th day of the pathology. The protocol:
3) The activity on chronic inflammation was evaluated in a polyarthritis auto-immune model in the rat using Freund's adjuvant in accordance with the protocol described by J. Bonnet et al. ("Bone morphometric changes in adjuvant-induced polyarthritic osteopenia in rats; evidence for an early bone formation defect" J. Bone Miner. Res. 8, 1993, 659-668). By way of example, the compound of Example 1, at an oral dose of 5 mg/kg/day, inhibits by 30% the diffusion of arthritis on the 14th day of the pathology.

With `COc1ccc(-c2cc(CCC(=O)N(C)O)sc2-c2ccc(OC)cc2)cc1` [Example 1, 3-[4,5-bis(4-methoxyphenyl)thien-2-yl]-N-hydroxy-N-methylpropionamide], the IC50 in assay [1] was determined as 30 nM; in assay [2] it was 50 nM. Also, the ED50 in the assay with mouse came out at 1 mg/kg. In the assay with rat, the “inhibition of the diffusion of arthritis” value is reported as 30%.

Consider `COc1ccc(-c2sc(CCC(=O)N(C)O)cc2-c2ccc(F)cc2)cc1` [Example 2], for which the half-maximal inhibitory concentration (IC50) in assay [1] amounted to 80 nM; in assay [2], 380 nM. Also, the ED50 in the assay on mouse amounted to 5 mg/kg.

With `COc1ccc(-c2cc(CCC(C)(C)CC(=O)NO)sc2-c2ccc(OC)cc2)cc1` [Example 3], the IC50 in assay [1] came out at 1000 nM; in assay [2] it was 2500 nM.

With `COc1ccc(-c2cc(CCC(C)(C)CC(=O)N(C)O)sc2-c2ccc(OC)cc2)cc1` [Example 4], the IC50 in assay [1] was 380 nM; in assay [2], 750 nM.

Consider `COc1ccc(-c2sc(CCC(C)(C)CC(=O)N(C)O)cc2-c2ccc(F)cc2)cc1` [Example 5], for which the figures for the IC50 in assay [1] and in assay [2] were 250 nM and 2500 nM, respectively.

`COc1ccc(-c2cc(CCCC(=O)N(C)O)sc2-c2ccc(OC)cc2)cc1` [Example 6]: the figures for the half-maximal inhibitory concentration (IC50) in assay [1] and in assay [2] were 50 nM and 380 nM, respectively. In the assay with mouse, the ED50 was 2.5 mg/kg.

For the compound `COc1ccc(-c2sc(CCCC(=O)N(C)O)cc2-c2ccc(C)cc2)cc1` [Example 16], the concentration for half-maximal inhibition (IC50) in assay [1] and in assay [2] was 50 nM throughout.

Regarding `CCN(O)C(=O)CCc1cc(-c2ccc(OC)cc2)c(-c2ccc(OC)cc2)s1` [Example 22], the IC50 stood at 50 nM in assay [1] and 80 nM in assay [2].

One may read the IC50 as the concentration at which inhibition is half-maximal. Higher therefore signals weaker potency.
